{
  "source": "patent US7687252B2",
  "about": "“Protein crystal of human cytochrome P450 aromatase and uses thereof” (Hauptman-Woodward Medcial Research Institute, Inc., priority 2007, dated 2010)",
  "molecules": {"B1": {"name": "Aromatase: human cytochrome P450 aromatase purified from term placenta, SEQ ID NO:1 (protein, listed as Homo sapiens)", "chain": "MVLEMLNPIHYNITSIVPEAMPAATMPVLLLTGLFLLVWNYEGTSSIPGPGYCMGIGPLISHGRFLWMGIGSACNYYNRVYGEFMRVWISGEETLIISKSSSMFHIMKHNHYSSRFGSKLGLQCIGMHEKGIIFNNNPELWKTTRPFFMKALSGPGLVRMVTVCAESLKTHLDRLEEVTNESGYVDVLTLLRRVMLDTSNTLFLRIPLDESAIVVKIQGYFDAWQALLIKPDIFFKISWLYKKYEKSVKDLKDAIEVLIAEKRRRISTEEKLEECMDFATELILAEKRGDLTRENVNQCILEMLIAAPDTMSVSLFFMLFLIAKHPNVEEAIIKEIQTVIGERDIKIDDIQKLKVMENFIYESMRYQPVVDLVMRKALEDDVIDGYPVKKGTNIILNIGRMHRLEFFPKPNEFTLENFAKNVPYRYFQPFGFGPRGCAGKYIAMVMMKAILVTLLRRFHVKTLQGQCVESIQKIHDLSLHPDETKNMLEMIFTPRNSDRCLEH"}, "B2": {"name": "Del38arom: amino-terminal trans-membrane domain deleted P450arom, bacterial expression clone (protein, UniProt P11511 39-503, looked up, fragment)", "chain": "WNYEGTSSIPGPGYCMGIGPLISHGRFLWMGIGSACNYYNRVYGEFMRVWISGEETLIISKSSSMFHIMKHNHYSSRFGSKLGLQCIGMHEKGIIFNNNPELWKTTRPFFMKALSGPGLVRMVTVCAESLKTHLDRLEEVTNESGYVDVLTLLRRVMLDTSNTLFLRIPLDESAIVVKIQGYFDAWQALLIKPDIFFKISWLYKKYEKSVKDLKDAIEVLIAEKRRRISTEEKLEECMDFATELILAEKRGDLTRENVNQCILEMLIAAPDTMSVSLFFMLFLIAKHPNVEEAIIKEIQTVIGERDIKIDDIQKLKVMENFIYESMRYQPVVDLVMRKALEDDVIDGYPVKKGTNIILNIGRMHRLEFFPKPNEFTLENFAKNVPYRYFQPFGFGPRGCAGKYIAMVMMKAILVTLLRRFHVKTLQGQCVESIQKIHDLSLHPDETKNMLEMIFTPRNSDRCLEH"}},
  "key": {"P450arom [1]": {"target": "T1, P450arom (Homo sapiens, UniProt P11511)", "T1 sequence (P11511 1-503)": "B1 chain", "assay": "Detergent screen: P450arom enzyme activity and time stability", "assay_type": "biochemical", "parameters": "Crystallization and structural investigation of the full-length native P450arom; from tissue; host or cells: human term placenta (aromatase); liver (CPR, bovine or rat)", "conditions": "detergent 1-3 mM, exchanged for Em on HA column"}, "MCF-7 cells": {"test_system": "MCF-7 cells", "assay": "Anti-proliferation assay in a MCF-7 cell line expressing P450arom (MTT)", "assay_type": "cell-based, human"}, "P450arom [2]": {"target": "T1, P450arom", "assay": "Absorption spectrum (Soret band) of P450arom-ligand complexes", "parameters": "Crystallization and structural investigation of the full-length native P450arom; from tissue", "conditions": "absorption spectrum of the P450arom complex"}, "P450arom [3]": {"target": "T1, P450arom", "parameters": "Crystallization and structural investigation of the full-length native P450arom; from tissue; host or cells: human term placenta (aromatase); liver (CPR, bovine or rat)", "conditions": "previously determined [51]; cited from earlier work"}, "P450arom [4]": {"target": "T1, P450arom", "assay": "Inhibition of P450arom enzyme activity (3H-water release from [1β-3H, 4-14C] androstenedione, enzyme reconstituted with CPR)", "assay_type": "biochemical", "parameters": "Crystallization and structural investigation of the full-length native P450arom; from tissue; host or cells: human term placenta (aromatase); liver (CPR, bovine or rat)", "conditions": "P450arom 20-30 mg/ml, final inhibitor 0.5-1.0 mM, crystallization protocol"}, "Aromatase [5]": {"test_system": "Aromatase", "assay": "Assay of enzyme activity (specific activity) of purified aromatase", "assay_type": "biochemical, human", "conditions": "in BNM after detergent exchange"}, "Aromatase [6]": {"target": "T2, Aromatase (Homo sapiens, UniProt P11511)", "T2 construct": "Crystallization and structural investigation of the full-length native P450arom; from tissue; host or cells: human term placenta (aromatase); liver (CPR, bovine or rat)", "T2 sequence (P11511 1-503)": "B1 chain", "assay": "Assay of enzyme activity (specific activity) of purified aromatase", "assay_type": "biochemical"}},
  "note": "Entries after “also recorded” stand apart in the source; their conditions may differ.",
  "data": [
    {"molecule": "CCCCCCCCO[C@@H]1O[C@H](CO)[C@@H](O[C@H]2O[C@H](CO)[C@@H](O)[C@H](O)[C@H]2O)[C@H](O)[C@H]1O", "note": "[BOM, n-octyl-β-D-maltopyranoside]", "values": [
      {"measurement": "effect of detergent on enzyme activity and time stability", "setting": "P450arom [1]", "value": "maintained enzyme activity and time stability at least as well as BDM"}
    ]},
    {"molecule": "C[C@]12CCC(=O)C=C1CC[C@@H]1[C@@H]2CC[C@]2(C)C(=O)CC[C@@H]12", "note": "[androstenedione]", "values": [
      {"measurement": "growth of the MCF-7 cells", "setting": "MCF-7 cells; substrate steroid alone", "value": "stimulates the growth of the MCF-7 cells in a concentration-dependent manner"},
      {"measurement": "Soret band", "setting": "P450arom [2]", "value": 394, "unit": "nm"}
    ]},
    {"molecule": "4-hydroxytamoxifen", "values": [
      {"measurement": "A-stimulated growth of the MCF-7 cells", "setting": "MCF-7 cells; androstenedione (A) stimulated", "value": "decreased"}
    ]},
    {"molecule": "CCCCCCCCO[C@@H]1O[C@H](CO)[C@@H](O)[C@H](O)[C@H]1O", "note": "[BOG, n-octyl-β-D-glucopyranoside]", "values": [
      {"measurement": "effect of detergent on P450arom activity", "setting": "P450arom [3]", "value": "destroy P450arom activity rapidly"}
    ]},
    {"molecule": "CCCCCCCCCO[C@@H]1O[C@H](CO)[C@@H](O[C@H]2O[C@H](CO)[C@@H](O)[C@H](O)[C@H]2O)[C@H](O)[C@H]1O", "note": "[BNM, n-nonyl-β-D-maltopyranoside]", "values": [
      {"measurement": "effect of detergent on enzyme activity and time stability", "setting": "P450arom [1]", "value": "maintained enzyme activity and time stability at least as well as BDM; also recorded: maintained the full P450arom activity"}
    ]},
    {"molecule": "CCCCCCCCCCCCO[C@@H]1O[C@H](CO)[C@@H](O[C@H]2O[C@H](CO)[C@@H](O)[C@H](O)[C@H]2O)[C@H](O)[C@H]1O", "note": "[BDM, n-dodecyl-β-D-maltopyranoside]", "values": [
      {"measurement": "effect of detergent on P450arom activity", "setting": "P450arom [3]", "value": "maintained P450arom activity for weeks at 4 °C"}
    ]},
    {"molecule": "N#Cc1ccc(C(c2ccc(C#N)cc2)n2cncn2)cc1", "note": "[letrozole]", "values": [
      {"measurement": "inhibition of P450arom", "setting": "P450arom [4]", "value": "~100", "unit": "%"},
      {"measurement": "DHEA-stimulated cell growth", "setting": "MCF-7 cells; DHEA stimulated MCF-7 cells", "value": "inhibits the growth of DHEA-stimulated cell growth"},
      {"measurement": "Soret band", "setting": "P450arom [2]", "value": 421, "unit": "nm"}
    ]},
    {"molecule": "CC(C)(C#N)c1cc(Cn2cncn2)cc(C(C)(C)C#N)c1", "note": "[anastrozole]", "values": [
      {"measurement": "Soret band", "setting": "P450arom [2]", "value": 421, "unit": "nm"}
    ]},
    {"molecule": "B1", "values": [
      {"measurement": "specific activity", "setting": "Aromatase [5]", "value": "10 to 50", "unit": "nmol/min/mg"},
      {"measurement": "turnover number", "setting": "Aromatase [6]; calculated", "value": "~6", "unit": "min⁻¹"},
      {"measurement": "specific activity retained", "setting": "Aromatase [6]; in detergents BNM and BDM, 4° C. for weeks", "value": "80-90%"},
      {"measurement": "specific activity of the purified enzyme", "setting": "Aromatase [6]; typical / over a large number of purifications, androstenedione as substrate", "value": "20 to 100", "unit": "nmol/min/mg"},
      {"measurement": "specific activity", "setting": "Aromatase [6]; with Em as the detergent", "value": "50 to 100", "unit": "nmol/min/mg"}
    ]},
    {"molecule": "B2", "values": [
      {"measurement": "specific activity", "setting": "Aromatase [5]", "value": "< 1", "unit": "nmol/min/mg"}
    ]}
  ]
}
